29 compounds from patent US20220251081A1, “HETEROBICYCLIC INHIBITORS OF MAT2A AND METHODS OF USE FOR TREATING CANCER” (priority 2019, published 2022) can be followed below.

One assay deals with HCT116 MTAP +/+. The experiment in a line: Inhibition of cellular proliferation, 4 days, Cell Titer Glo, HCT116 MTAP+/+. It is filed as cell-based. The conditions noted are these: Homo sapiens, HCT-116, 96 h, IC50 score, read-out: 4 Day Relative Growth Inhibition (MTAP +/+). Put shortly: (§1)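 Isogenic human colon carcinoma lines differing only in MTAP status, plated 24 h before dosing, then exposed for 4 days at 37 °C/5% CO2 to a 10-point 3-fold dilution series (0.2% DMSO final). Read-out is Cell Titer Glo ATP luminescence, blank-subtracted and normalised to in-plate DMSO control, plotted as % proliferation change versus log molar concentration.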

In a further assay the test system is HCT116 MTAP-/-. Kind of assay: Inhibition of cellular proliferation, 4 days, Cell Titer Glo, HCT116 MTAP-/-. Format: cell-based. The conditions noted are these: Homo sapiens, HCT-116, 96 h, IC50 score, read-out: 4 Day Relative Growth Inhibition (MTAP −/−). Put shortly:
as §1

A further assay addresses T1, MAT2A homodimer (Homo sapiens, UniProt P31153).
T1 construct: inferred from Ni sepharose purification and imidazole elution; made in house; host or cells: Sf9 insect cells, recombinant baculovirus (Bac to Bac, pFASTBAC1 vector)
Kind of assay: Biochemical assay: inhibition of recombinant MAT2A homodimer (phosphate release, PiColorLock Gold). The conditions noted are these: MAT2A IC50 score; read-out: Enzyme Inhibition. Put shortly:
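Baculovirus/Sf9-expressed, Ni-purified MAT2A at 4 μg/mL in pH 8.0 Tris/KCl/MgCl2/EDTA/BSA buffer, preincubated with compound 60 min at 25 °C. Started with ATP and L-methionine substrate mix (500 μM and 40 μM, stock in mix), 60 min at 25 °C; released phosphate by PiColorLock Gold against a phosphate standard curve.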

Assay [1] relates to SAM in HCT116 human colon carcinoma cell line with deleted MTAP gene. Kind of assay: Cellular assay of target engagement (SAM): SAM level by LC-MS/MS after 72 hrs. It is filed as cell-based. The settings on record: HCT-116, IC50 score, read-out: Cell 72 h SAM Inhibition (MTAP −/−). Put shortly:
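MTAP-deleted HCT116 cells were seeded, then exposed 24 h later to a 10-point 3-fold compound dilution series for 72 h at 37 °C/5% CO2. They were lysed in cold 80% methanol/acetic acid containing d3-SAM internal standard. SAM was quantified by LC-MS/MS (MRM, m/z 399.2→250.1).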

T1 sequence (P31153 whole entry): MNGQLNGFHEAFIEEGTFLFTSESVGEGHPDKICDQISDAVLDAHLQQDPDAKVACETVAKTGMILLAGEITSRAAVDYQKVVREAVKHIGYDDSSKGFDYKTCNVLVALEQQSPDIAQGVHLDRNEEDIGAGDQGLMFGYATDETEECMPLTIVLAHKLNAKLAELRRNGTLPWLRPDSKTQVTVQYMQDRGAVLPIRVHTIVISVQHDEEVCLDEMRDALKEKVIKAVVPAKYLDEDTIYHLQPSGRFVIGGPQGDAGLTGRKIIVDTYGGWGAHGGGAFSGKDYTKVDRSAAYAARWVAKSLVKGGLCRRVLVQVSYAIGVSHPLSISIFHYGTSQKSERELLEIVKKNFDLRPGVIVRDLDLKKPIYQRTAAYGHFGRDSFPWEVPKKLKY

For `COc1ccc(-n2c(=O)c(-c3ccc4nn(CCN)cc4c3)nc3ccc(OCC(F)(F)F)nc32)cc1` [Example 347, 2-(2-(2-aminoethyl)-2H-indazol-5-yl)-4-(4-methoxyphenyl)-6-(2,2,2-trifluoroethoxy)pyrido[2,3-b]pyrazin-3(4H)-one], the IC50 in the assay on HCT116 MTAP +/+ is no less than 1000 nM; with HCT116 MTAP-/- it was 100 to 1000 nM; at MAT2A homodimer it was less than 100 nM; in assay [1], less than 100 nM.
For the compound `CCNc1ccc2cc(-c3ccc4nn(C)cc4c3)c(=O)n(-c3ccc(C4CC4)nc3)c2n1` [Example 308], the IC50 is no less than 1000 nM in the assay with HCT116 MTAP +/+, less than 100 nM with HCT116 MTAP-/-, less than 100 nM on MAT2A homodimer and less than 100 nM in assay [1].
For the compound `CCOc1ccc2cc(-c3ccc(OC)cc3)c(=O)n(-c3ccc(OC(F)F)nc3)c2n1` [Example 158], the IC50 is no less than 1000 nM in the assay on HCT116 MTAP +/+, 100 to 1000 nM in the assay with HCT116 MTAP-/-, less than 100 nM at MAT2A homodimer and 100 to 1000 nM in assay [1].
As to `COc1ccc(-c2cc3cnc(NCC(F)(F)F)nc3n(-c3ccc(OC)cc3)c2=O)cc1` [Example 115], the IC50 with HCT116 MTAP +/+ is no less than 1000 nM; with HCT116 MTAP-/-, 100 to 1000 nM; on MAT2A homodimer it was less than 100 nM; in assay [1], less than 100 nM.
In the case of `Cn1cc2cc(-c3nc4ccc(NCC(F)(F)F)nc4n(-c4ccc(Cl)cc4)c3=O)ccc2n1` [Example 226], the IC50 was no less than 1000 nM in the assay on HCT116 MTAP +/+, less than 100 nM in the assay with HCT116 MTAP-/-, less than 100 nM on MAT2A homodimer and less than 100 nM in assay [1].
Take `COc1ccc(-n2c(=O)c(-c3ccc4nn(C)cc4c3)nc3c(N)cc(OCC(F)(F)F)nc32)cc1` [Example 352, 8-amino-4-(4-methoxyphenyl)-2-(2-methyl-2H-indazol-5-yl)-6-(2,2,2-trifluoroethoxy)pyrido[2,3-b]pyrazin-3(4H)-one]: the IC50 in the assay on HCT116 MTAP +/+ is 100 to 1000 nM; with HCT116 MTAP-/-, less than 100 nM; on MAT2A homodimer it was less than 100 nM; in assay [1] it was less than 100 nM.
In the case of `CCOc1ccc2cc(-c3ccnc(OC)c3)c(=O)n(-c3ccc(Cl)cc3)c2n1` [Example 202], the IC50 with HCT116 MTAP +/+ was no less than 1000 nM; in the assay with HCT116 MTAP-/-, 100 to 1000 nM; at MAT2A homodimer, less than 100 nM; in assay [1], 100 to 1000 nM.
With `COc1ccc(-c2nc3ccc(NCC(F)(F)F)nc3n(-c3ccc(OC(F)F)cc3)c2=O)cc1` [Example 227], the IC50 was no less than 1000 nM in the assay on HCT116 MTAP +/+, less than 100 nM in the assay on HCT116 MTAP-/-, less than 100 nM at MAT2A homodimer and less than 100 nM in assay [1].
For the compound `CNc1ccc(-n2c(=O)c(-c3ccc4nn(C)cc4c3)nc3ccc(OCC(F)(F)F)nc32)cn1` [Example 348, 2-(2-methyl-2H-indazol-5-yl)-4-(6-(methylamino)pyridin-3-yl)-6-(2,2,2-trifluoroethoxy)pyrido[2,3-b]pyrazin-3(4H)-one], the IC50 with HCT116 MTAP +/+ was no less than 1000 nM; in the assay with HCT116 MTAP-/-, less than 100 nM; at MAT2A homodimer it was less than 100 nM; in assay [1], less than 100 nM.
On to `CCOc1ccc2nc(-c3ccc(OC)cc3)c(=O)n(-c3ccc(OC(F)F)cc3)c2n1` [Example 223], for which the IC50 was no less than 1000 nM in the assay on HCT116 MTAP +/+, 100 to 1000 nM in the assay on HCT116 MTAP-/-, less than 100 nM on MAT2A homodimer and 100 to 1000 nM in assay [1].
As for `Cn1cc2cc(-c3nc4ccc(OCC(F)(F)F)nc4n(-c4ccc(C5CC5)cc4)c3=O)ccc2n1` [Example 329], the IC50 is no less than 1000 nM in the assay on HCT116 MTAP +/+, less than 100 nM in the assay on HCT116 MTAP-/-, less than 100 nM on MAT2A homodimer and less than 100 nM in assay [1].
Turning to `Cn1cc2cc(-c3cc4ccc(OCC(F)F)nc4n(-c4ccc(OC(F)F)cc4)c3=O)ccc2n1` [Example 321], the IC50 is no less than 1000 nM with HCT116 MTAP +/+, less than 100 nM with HCT116 MTAP-/-, less than 100 nM at MAT2A homodimer and less than 100 nM in assay [1].
Consider `CCOc1ccc2cc(-c3ccc4ncsc4c3)c(=O)n(-c3ccc(Cl)cc3)c2n1` [Example 203], for which the IC50 in the assay on HCT116 MTAP +/+ was no less than 1000 nM; with HCT116 MTAP-/-, less than 100 nM; at MAT2A homodimer it was less than 100 nM; in assay [1] it was less than 100 nM.
`CCOc1ccc2cc(-c3ccc4nccn4c3)c(=O)n(-c3ccc(Cl)cc3)c2n1` [Example 197]: the IC50 with HCT116 MTAP +/+ was no less than 1000 nM; in the assay on HCT116 MTAP-/-, less than 100 nM; on MAT2A homodimer it was less than 100 nM; in assay [1], less than 100 nM.
As to `CCOc1ccc2cc(-c3ccc4nn(C)cc4c3)c(=O)n(-c3ccc(NC)nc3)c2n1` [Example 144], the IC50 with HCT116 MTAP +/+ was 100 to 1000 nM; in the assay with HCT116 MTAP-/- it was less than 100 nM; at MAT2A homodimer, less than 100 nM; in assay [1], less than 100 nM.
As to `COc1ccc(-c2cc3cnc(NCC(F)(F)F)nc3n(-c3ccc(-c4ccn[nH]4)cc3)c2=O)cc1` [Example 233, 8-(4-(1H-pyrazol-5-yl)phenyl)-6-(4-methoxyphenyl)-2-(2,2,2-trifluoroethylamino)pyrido[2,3-d]pyrimidin-7(8H)-one], the IC50 with HCT116 MTAP +/+ was no less than 1000 nM; with HCT116 MTAP-/- it was less than 100 nM; on MAT2A homodimer, less than 100 nM; in assay [1], less than 100 nM.
As to `O=c1c(-c2ccc3nncn3c2)cc2ccc(OCC(F)(F)F)nc2n1-c1ccc(Cl)cc1` [Example 214], the IC50 is no less than 1000 nM in the assay on HCT116 MTAP +/+, 100 to 1000 nM in the assay with HCT116 MTAP-/-, less than 100 nM at MAT2A homodimer and less than 100 nM in assay [1].
Turning to `COc1ccc(-n2c(=O)c(-c3ccc4nn(C)cc4c3)cc3ccc(OCC(F)(F)F)nc32)cn1` [Example 123], the IC50 is no less than 1000 nM in the assay on HCT116 MTAP +/+, less than 100 nM with HCT116 MTAP-/-, less than 100 nM on MAT2A homodimer and less than 100 nM in assay [1].
For `Cn1cc2cc(-c3cc4ccc(OCC(F)(F)F)nc4n(-c4ccc(Cl)cc4)c3=O)ccc2n1` [Example 119, 1-(4-chlorophenyl)-3-(2-methyl-2H-indazol-5-yl)-7-(2,2,2-trifluoroethoxy)-1,8-naphthyridin-2(1H)-one], the IC50 is no less than 1000 nM with HCT116 MTAP +/+, less than 100 nM with HCT116 MTAP-/-, less than 100 nM at MAT2A homodimer and less than 100 nM in assay [1].
On to `Cn1cc2cc(-c3cc4ccc(OCC(F)(F)F)nc4n(-c4ccc(N)nc4)c3=O)ccc2n1` [Example 320], for which the IC50 in the assay with HCT116 MTAP +/+ was 100 to 1000 nM; in the assay on HCT116 MTAP-/-, less than 100 nM; at MAT2A homodimer, less than 100 nM; in assay [1], less than 100 nM.
As for `CCOc1ccc2cc(-c3ccc4nn(C)cc4c3)c(=O)n(-c3ccc(OC)nc3)c2n1` [Example 157], the IC50 in the assay on HCT116 MTAP +/+ is 100 to 1000 nM; in the assay with HCT116 MTAP-/-, less than 100 nM; on MAT2A homodimer, less than 100 nM; in assay [1], less than 100 nM.
In the case of `COc1ccc(-n2c(=O)c(-c3ccc4nn(C)cc4c3)cc3ncc(OCC(F)(F)F)nc32)cc1` [Example 343, 5-(4-methoxyphenyl)-7-(2-methyl-2H-indazol-5-yl)-3-(2,2,2-trifluoroethoxy)pyrido[2,3-b]pyrazin-6(5H)-one], the IC50 is no less than 1000 nM in the assay with HCT116 MTAP +/+, less than 100 nM in the assay with HCT116 MTAP-/-, less than 100 nM on MAT2A homodimer and less than 100 nM in assay [1].
Take `COc1ccc(-n2c(=O)c(-c3ccc4ncsc4c3)cc3cnc(NCC(F)(F)F)nc32)cc1` [Example 188]: the IC50 in the assay on HCT116 MTAP +/+ is no less than 1000 nM; with HCT116 MTAP-/-, 100 to 1000 nM; at MAT2A homodimer, less than 100 nM; in assay [1], less than 100 nM.
In the case of `COc1ccc(-n2c(=O)c(-c3ccc(=O)[nH]c3)cc3cnc(NCC(F)(F)F)nc32)cc1` [Example 235, 8-(4-methoxyphenyl)-6-(6-oxo-1,6-dihydropyridin-3-yl)-2-(2,2,2-trifluoroethylamino)pyrido[2,3-d]pyrimidin-7(8H)-one], the IC50 with HCT116 MTAP +/+ was no less than 1000 nM; in the assay on HCT116 MTAP-/-, 100 to 1000 nM; at MAT2A homodimer it was less than 100 nM; in assay [1] it was 100 to 1000 nM.
As for `Cn1cc2cc(-c3nc4ccc(OCC(F)(F)F)nc4n(-c4ccc(OC(F)F)cc4)c3=O)ccc2n1` [Example 328], the IC50 was no less than 1000 nM in the assay on HCT116 MTAP +/+, less than 100 nM with HCT116 MTAP-/-, less than 100 nM on MAT2A homodimer and less than 100 nM in assay [1].
In the case of `COc1ccc(-n2c(=O)c(-c3ccc(OC)nc3)cc3cnc(NCC(F)(F)F)nc32)cc1` [Example 171], the IC50 in the assay on HCT116 MTAP +/+ was no less than 1000 nM; with HCT116 MTAP-/-, no less than 1000 nM; at MAT2A homodimer it was less than 100 nM; in assay [1], 100 to 1000 nM.
As to `CCOc1ccc2cc(-c3ccc4nn(C)cc4c3)c(=O)n(-c3ccc(OC(F)(F)F)cc3)c2n1` [Example 153], the IC50 in the assay on HCT116 MTAP +/+ was no less than 1000 nM; in the assay on HCT116 MTAP-/-, less than 100 nM; at MAT2A homodimer it was less than 100 nM; in assay [1], less than 100 nM.
For the compound `Cn1cc2cc(-c3cc4ccc(OCC(F)(F)F)nc4n(-c4ccc(Br)cc4)c3=O)ccc2n1` [Example 319], the IC50 was no less than 1000 nM in the assay with HCT116 MTAP +/+, less than 100 nM in the assay on HCT116 MTAP-/-, less than 100 nM at MAT2A homodimer and less than 100 nM in assay [1].
Take `[2H]C([2H])([2H])Oc1ccc(-n2c(=O)c(-c3ccc4nncn4c3)cc3ccc(OCC)nc32)cc1` [Example 221]: the IC50 was no less than 1000 nM with HCT116 MTAP +/+, less than 100 nM with HCT116 MTAP-/-, less than 100 nM on MAT2A homodimer and less than 100 nM in assay [1].
